One series concerns cholesterol-fed rat. Kind of series: Serum cholesterol lowering action in cholesterol-fed rat. The format is in vivo. The following applies: for Reduction % of serum cholesterol value: cholesterol-fed rat, value to control. Here is the method: Male Splague-Dawley rats weighing 300˜500 g (Nihon SLC Co. Ltd.) were fed MF-2 chow (Nihon Crea Co. Ltd.) until study onset. At the study onset, the chow was changed to MF-2 chow containing 1% cholesterol and 0.5% cholic acid. […] Twenty hours after the last administration, blood was collected from the abdominal aorta under ether anaesthesia, and serum was separated. The cholesterol value was measured using Cholesterol E Test Wako (Wako Pure Chemical Co. Ltd.). […] The experimental 5 and 6 indicates the combined dosage examples in the present invention. Each reduction percent is shown as the value to control.
Except of the use of compound 37 instead of compound 56, quietly same experiment to pharmacological experiment 1 was carried out. Each reduction % is shown as the value to control.

The mark [1] stands for this setting: alone, 1 mg/kg/day, once a day for 7 days.
The mark [2] stands for this setting: alone, 0.03 mg/kg/day, once a day for 7 days.
The mark [3] stands for this setting: alone, 0.3 mg/kg/day, once a day for 7 days.
[4] abbreviates: combined dosage: compound 0.3 mg/kg/day + atorvastatin 1 mg/kg/day.
The mark [5] stands for this setting: combined dosage: compound 0.3 mg/kg/day + atorvastatin 1 mg/kg/day, 7 days.
[6] abbreviates: combined dosage: compound 0.3 mg/kg/day + fenofibrate 10 mg/kg/day.
The mark [7] stands for this setting: combined dosage: compound 0.3 mg/kg/day + fenofibrate 10 mg/kg/day, 7 days.

Each structure is given as a SMILES string.

With `CC(C)c1c(C(=O)Nc2ccccc2)c(-c2ccccc2)c(-c2ccc(F)cc2)n1CC[C@@H](O)C[C@@H](O)CC(=O)O` [Atorvastatin, atorvastatin, reference compound], the “Reduction % of serum cholesterol value” in the series on cholesterol-fed rat (setting [1]) amounted to 6.2%. For the compound `O=C(CC[C@H]1C(=O)N(c2ccc(F)cc2)[C@@H]1c1ccc([C@@H]2O[C@H](CO)[C@@H](O)[C@H](O)[C@H]2O)cc1)c1ccc(F)cc1` [Compound 34], the melting point was 83 to 85 °C. On to `O=C1[C@H](CC[C@H](O)c2ccc(F)cc2)[C@@H](c2ccc([C@@H]3O[C@H](CO)[C@@H](O)[C@H](O)[C@H]3O)cc2)N1c1ccc(F)cc1` [Compound 35], for which the melting point was in the range of 81 to 83 °C. Turning to `Cc1ccc(N2C(=O)[C@H](CC[C@H](O)c3ccc(F)cc3)[C@H]2c2ccc([C@@H]3O[C@H](CO)[C@@H](O)[C@H](O)[C@H]3O)cc2)cc1` [Compound 36], the melting point lay in the range of 79 to 81 °C.

In the case of `O=C1[C@H](CC[C@H](O)c2ccc(F)cc2)[C@@H](c2ccc([C@@H]3O[C@H](CO)[C@@H](O)[C@H](O)[C@H]3O)cc2)N1c1ccccc1` [Compound 37], the melting point lay within 80 to 82 °C. For the same compound, the “Reduction % of serum cholesterol value” in the series on cholesterol-fed rat (setting [2]) was 5.6%. In addition, in the series with cholesterol-fed rat (setting [3]), the “Reduction % of serum cholesterol value” was 18.0%. For the same compound, the “Reduction % of serum cholesterol value” in the series with cholesterol-fed rat (setting [1]) is on record as 31.0%. Also, in the series on cholesterol-fed rat (setting [4]), the “Combination effect on reduction % of serum cholesterol versus sum of agents alone” value (from here on “Combination effect on reduction %”) is given as “synergistic effect”. Further, the “Reduction % of serum cholesterol value” with cholesterol-fed rat (setting [5]) stood at 31.5%. Besides, the “Combination effect on reduction %” value in the series with cholesterol-fed rat (setting [6]) was “synergistic effect”. In the series on cholesterol-fed rat (setting [7]), the “Reduction % of serum cholesterol value” is 39.5%. `O=C1[C@H](CC[C@H](O)c2ccc(F)cc2)[C@@H](c2ccc(F)cc2)N1c1ccc(C[C@@H]2O[C@H](CO)[C@@H](O)[C@H](O)[C@H]2O)cc1` [Compound 38] registered a melting point of 200 to 201 °C. `O=C1[C@H](CC[C@H](O)c2ccc(C[C@@H]3O[C@H](CO)[C@@H](O)[C@H](O)[C@H]3O)cc2)[C@@H](c2ccc(F)cc2)N1c1ccc(F)cc1` [Compound 39] came in with a melting point of 126 to 128 °C.

As for `O=C1[C@H](CCCc2ccc(F)cc2)[C@H](c2ccc(C[C@@H]3O[C@H](CO)[C@@H](O)[C@H](O)[C@H]3O)cc2)N1c1ccc(F)cc1` [Compound 40], the melting point lay within 78 to 80 °C.

For the compound `O=C1[C@H](CC[C@H](O)c2ccccc2)[C@@H](c2ccc(C[C@@H]3O[C@H](CO)[C@@H](O)[C@H](O)[C@H]3O)cc2)N1c1ccccc1` [Compound 41], the melting point is 110 to 112 °C.

The compound `CCOC(=O)c1ccc(N2C(=O)[C@H](CC[C@H](O)c3ccc(F)cc3)[C@H]2c2ccc(C[C@@H]3O[C@H](CO)[C@@H](O)[C@H](O)[C@H]3O)cc2)cc1` [Compound 42] returned a melting point of 56 to 58 °C. `Cc1ccc(N2C(=O)[C@H](CCOc3ccc(F)cc3)[C@H]2c2ccc(C[C@@H]3O[C@H](CO)[C@@H](O)[C@H](O)[C@H]3O)cc2)cc1` [Compound 43] had a melting point of 96 to 98 °C. `O=C1[C@H](CCCc2ccccc2)[C@@H](c2ccc(C[C@@H]3O[C@H](CO)[C@@H](O)[C@H](O)[C@H]3O)cc2)N1c1ccccc1` [Compound 44] had a melting point of 84 to 86 °C. Still for that read-out and setting: the result for `O=C1[C@H](CC[C@H](O)c2ccc(F)cc2)[C@@H](c2ccc(/C=C/[C@@H]3O[C@H](CO)[C@@H](O)[C@H](O)[C@H]3O)cc2)N1c1ccc(F)cc1` [Compound 45] reads 84 to 86 °C; that for `O=C1[C@H](CC[C@H](O)c2ccc(F)cc2)[C@@H](c2ccc(CC[C@@H]3O[C@H](CO)[C@@H](O)[C@H](O)[C@H]3O)cc2)N1c1ccc(F)cc1` [Compound 46], 153 to 155 °C.

Compound `O=C1[C@H](CC[C@H](O)c2ccc(F)cc2)[C@@H](c2ccc(/C=C/C[C@@H]3O[C@H](CO)[C@@H](O)[C@H](O)[C@H]3O)cc2)N1c1ccc(F)cc1` [Compound 47] yielded a melting point of 72 to 74 °C. `O=C1[C@H](CC[C@H](O)c2ccc(F)cc2)[C@@H](c2ccc(CCC[C@@H]3O[C@H](CO)[C@@H](O)[C@H](O)[C@H]3O)cc2)N1c1ccc(F)cc1` [Compound 48]: the melting point was in the range of 81 to 83 °C. Compound `O=C1[C@H](CC[C@H](O)c2ccc([C@H]3O[C@@H](CO)[C@H](O)[C@@H](O)[C@@H]3O)cc2)C(c2ccc(F)cc2)N1c1ccc(F)cc1` (stereo partly shown) [Compound 49] came in with a melting point of 111 to 113 °C.

With `O=C1[C@H](CC[C@H](O)c2ccc(F)cc2)[C@@H](c2ccc(CCCOC[C@@H]3O[C@H](CO)[C@@H](O)[C@H](O)[C@H]3O)cc2)N1c1ccc(F)cc1` [Compound 50], the melting point was in the range of 61 to 63 °C. `O=C1[C@H](CC[C@H](O)c2ccc(F)cc2)[C@@H](c2ccc(/C=C/COC[C@@H]3O[C@H](CO)[C@@H](O)[C@H](O)[C@H]3O)cc2)N1c1ccc(F)cc1` [Compound 51] came in with a melting point of 65 to 67 °C. As for `O=C1[C@H](CC[C@H](O)c2ccc(F)cc2)[C@@H](c2ccc(/C=C/CC[C@@H]3O[C@H](CO)[C@@H](O)[C@H](O)[C@H]3O)cc2)N1c1ccc(F)cc1` [Compound 52], the melting point fell in the range of 79 to 81 °C.

Take `O=C1[C@H](CC[C@H](O)c2ccc(F)cc2)[C@@H](c2ccc(CCCC[C@@H]3O[C@H](CO)[C@@H](O)[C@H](O)[C@H]3O)cc2)N1c1ccc(F)cc1` [Compound 53]: the melting point is 81 to 83 °C. On to `O=C1[C@H](CC[C@H](O)c2ccc(F)cc2)[C@@H](c2ccc(/C=C/CCC[C@@H]3O[C@H](CO)[C@@H](O)[C@H](O)[C@H]3O)cc2)N1c1ccc(F)cc1` [Compound 54], for which the melting point was in the range of 69 to 71 °C. Compound `O=C1[C@H](CC[C@H](O)c2ccc(F)cc2)[C@@H](c2ccc(CCCCC[C@@H]3O[C@H](CO)[C@@H](O)[C@H](O)[C@H]3O)cc2)N1c1ccc(F)cc1` [Compound 55] had a melting point of 66 to 68 °C.

Turning to `O=C1[C@H](CC[C@H](O)c2ccc(F)cc2)[C@@H](c2ccc(CC[C@@H]3O[C@H](CO)[C@@H](O)[C@H](O)[C@H]3O)cc2)N1c1ccccc1` [Compound 56], the melting point was 82 to 84 °C. Further, the “Reduction % of serum cholesterol value” in the series on cholesterol-fed rat (setting [2]) turned out to be 1.9%. Moreover, the “Reduction % of serum cholesterol value” in the series on cholesterol-fed rat (setting [3]) is 6.9%. In the series with cholesterol-fed rat (setting [1]), the “Reduction % of serum cholesterol value” stood at 33.5%. In the series on cholesterol-fed rat (setting [4]), the “Combination effect on reduction %” value is given as “synergistic effect”. In the series on cholesterol-fed rat (setting [5]), the “Reduction % of serum cholesterol value” worked out at 20.2%. The “Combination effect on reduction %” value in the series with cholesterol-fed rat (setting [6]) was “synergistic effect”. The “Reduction % of serum cholesterol value” in the series with cholesterol-fed rat (setting [7]) is on record as 41.3%. In the case of `Cc1ccc(N2C(=O)[C@H](CC[C@H](O)c3ccc(F)cc3)[C@H]2c2ccc(CC[C@@H]3O[C@H](CO)[C@@H](O)[C@H](O)[C@H]3O)cc2)cc1` [Compound 57], the melting point is 116 to 118 °C. The compound `O=C(O)[C@H]1O[C@@H](CCc2ccc([C@@H]3[C@@H](CC[C@H](O)c4ccc(F)cc4)C(=O)N3c3ccccc3)cc2)[C@H](O)[C@@H](O)[C@@H]1O` [Compound 58] yielded a melting point of 110 to 112 °C.

(Values after patent US7795229B2, “Serum cholesterol lowering agent or preventative or therapeutic agent for atherosclerosis” (Kotobuki Pharmaceutical Co., Ltd., priority 2003, dated 2010).)
